Measured values taken from patent US10259818B2, “Bicyclic azaheterocyclobenzylamines as PI3K inhibitors” (Incyte Corporation, priority 2012, dated 2019).

Experiments:
[1] = test system: SUDHL-6 cell line (diffuse large B cell lymphoma); assay: SUDHL-6 cell proliferation assay (Example B3); type: cell-based; conditions: SUDHL-6 cells, 3 days, Cell Titer-GLO
Procedure, shortened: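 Cells in RPMI/10% FBS, 5000 per well, exposed to a concentration range of test compound for 3 days. Viability read as ATP content by CellTiter-Glo luminescence after 10 min at room temperature; IC50 derived from the luminescence.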

PI3Kδ = PI3Kδ (Homo sapiens (Human), UniProt O00329); assay: PI3K enzyme assay, [γ-33P]ATP filter plate (Example A2); type: biochemical; conditions: Assay A2 (filter plate, 1000 μM ATP)
Experimental: Example A2: PI3K Enzyme Assay
Lipid kinase substrate, phosphoinositol-4,5-bisphosphate (PIP2), are purchased from Echelon Biosciences (Salt Lake City, Utah). PI3K isoforms α, β, δ and γ are purchased from Millipore (Bedford, Mass.). ATP, MgCl2, DTT, EDTA, MOPS and CHAPS are purchased from Sigma-Aldrich (St. Louis, Mo.).
The kinase reaction are conducted in clear-bottom 96-well plate from Thermo Fisher Scientific in a final volume of 24 μL. Inhibitors are first diluted serially in DMSO and added to the plate wells before the addition of other reaction components. The final concentration of DMSO in the assay is 0.5%. The PI3K assays are carried out at room temperature in 20 mM MOPS, pH 6.7, 10 mM MgCl2, 5 mM DTT and CHAPS 0.03%. The reaction mixture is prepared containing 50 μM PIP2, kinase and varying concentration of inhibitors. Reactions are initiated by the addition of ATP containing 2.2 μCi [γ-^33P]ATP to a final concentration of 1000 μM. The final concentration of PI3K isoforms α, β, δ and γ in the assay were 1.3, 9.4, 2.9 and 10.8 nM, respectively. Reactions are incubated for 180 minutes and terminated by the addition of 100 μL of 1 M potassium phosphate pH 8.0, 30 mM EDTA quench buffer. A 100 μL aliquot of the reaction solution are then transferred to 96-well Millipore MultiScreen IP […] PVDF filter plate (The filter plate is prewetted with 200 μL 100% ethanol, distilled water, and 1 M potassium phosphate pH 8.0, respectively). The filter plate is aspirated on a Millipore Manifold under vacuum and washed with 18×200 μL wash buffer containing 1 M potassium phosphate pH 8.0 and 1 mM ATP. After drying by aspiration and blotting, the plate is air dried in an incubator at 37° C. overnight. Packard TopCount adapter (Millipore) is then attached to the plate followed with addition of 120 μL Microscint 20 scintillation cocktail (Perkin Elmer) in each well. After the plate sealing, the radioactivity of the product is determined by scintillation counting on Topcount (Perkin-Elmer). IC50 determination is performed by fitting the curve of percent control activity versus the log of the inhibitor concentration using the GraphPad Prism 3.0 software.

PI3Kδ, sequence (O00329 whole entry): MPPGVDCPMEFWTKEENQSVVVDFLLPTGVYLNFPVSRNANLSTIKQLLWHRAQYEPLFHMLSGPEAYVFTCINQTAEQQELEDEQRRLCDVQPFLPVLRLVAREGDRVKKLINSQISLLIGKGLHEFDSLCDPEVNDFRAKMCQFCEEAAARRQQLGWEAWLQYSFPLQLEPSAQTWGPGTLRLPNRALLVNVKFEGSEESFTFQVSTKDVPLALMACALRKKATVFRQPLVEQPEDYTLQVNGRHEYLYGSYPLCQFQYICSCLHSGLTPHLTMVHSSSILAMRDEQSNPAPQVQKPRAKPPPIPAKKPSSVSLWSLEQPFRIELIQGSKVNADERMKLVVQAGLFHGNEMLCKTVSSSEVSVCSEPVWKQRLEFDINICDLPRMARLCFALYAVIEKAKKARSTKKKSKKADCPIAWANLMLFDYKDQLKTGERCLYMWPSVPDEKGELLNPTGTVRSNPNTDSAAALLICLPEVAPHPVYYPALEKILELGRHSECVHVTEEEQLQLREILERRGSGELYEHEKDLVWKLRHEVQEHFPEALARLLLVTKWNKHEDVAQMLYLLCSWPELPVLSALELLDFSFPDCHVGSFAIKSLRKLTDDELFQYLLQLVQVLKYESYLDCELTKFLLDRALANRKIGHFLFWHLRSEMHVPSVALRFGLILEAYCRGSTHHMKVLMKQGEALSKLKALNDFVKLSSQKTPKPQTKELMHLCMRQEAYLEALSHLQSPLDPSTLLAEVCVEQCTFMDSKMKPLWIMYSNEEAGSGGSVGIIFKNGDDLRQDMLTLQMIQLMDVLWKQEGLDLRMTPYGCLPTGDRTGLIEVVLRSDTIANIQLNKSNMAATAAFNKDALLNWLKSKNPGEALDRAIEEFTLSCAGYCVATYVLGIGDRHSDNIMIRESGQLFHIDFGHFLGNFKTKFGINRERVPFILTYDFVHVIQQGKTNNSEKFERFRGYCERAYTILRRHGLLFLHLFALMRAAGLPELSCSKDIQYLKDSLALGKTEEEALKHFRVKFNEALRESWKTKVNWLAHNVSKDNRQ
PI3Kδ, sequence (P27986 whole entry partner): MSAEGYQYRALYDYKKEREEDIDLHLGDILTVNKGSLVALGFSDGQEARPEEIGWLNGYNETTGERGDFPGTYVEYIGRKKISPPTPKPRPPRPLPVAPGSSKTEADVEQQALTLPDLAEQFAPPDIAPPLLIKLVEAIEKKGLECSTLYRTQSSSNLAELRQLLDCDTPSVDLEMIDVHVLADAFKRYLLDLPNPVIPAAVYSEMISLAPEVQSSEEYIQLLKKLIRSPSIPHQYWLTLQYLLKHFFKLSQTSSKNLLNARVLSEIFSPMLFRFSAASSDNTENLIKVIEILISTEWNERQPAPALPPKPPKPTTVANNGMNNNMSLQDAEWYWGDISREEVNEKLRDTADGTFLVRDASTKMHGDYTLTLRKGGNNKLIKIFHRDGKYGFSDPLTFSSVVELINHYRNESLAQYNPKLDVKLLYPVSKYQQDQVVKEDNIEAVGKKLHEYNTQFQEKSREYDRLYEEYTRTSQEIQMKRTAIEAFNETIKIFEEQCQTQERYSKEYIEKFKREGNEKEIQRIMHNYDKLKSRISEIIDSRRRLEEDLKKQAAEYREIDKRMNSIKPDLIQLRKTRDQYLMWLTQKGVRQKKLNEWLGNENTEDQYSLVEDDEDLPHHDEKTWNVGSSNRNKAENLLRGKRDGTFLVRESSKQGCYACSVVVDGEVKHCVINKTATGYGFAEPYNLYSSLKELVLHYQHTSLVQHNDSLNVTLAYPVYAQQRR

Structure (SMILES)	IC50 [1]	IC50 (PI3Kδ)	IC50 ([1]; Homo sapiens, SU-DHL-6, 72 h)
Cc1nn(C(C)c2cc(Cl)c(F)c3c2OC(C)CN(C2CN(C(=O)OC(C)(C)C)C2)C3)c2ncnc(N)c12 (single isomer, unassigned) [Example 27, tert-Butyl 3-[9-[1-(4-amino-3-methyl-1H-pyrazolo[3,4-d]pyrimidin-1-yl)ethyl]-7-chloro-6-fluoro-2-methyl-2,3-dihydro-1,4-benzoxazepin-4(5H)-yl]azetidine-1-carboxylate]	≤ 500 nM	≤ 100 nM	–
COC(=O)N1CC(N2Cc3c(F)c(Cl)cc(C(C)n4nc(C)c5c(N)ncnc54)c3OC(C)C2)C1 (single isomer, unassigned) [Example 79, methyl 3-[9-[1-(4-amino-3-methyl-1H-pyrazolo[3,4-d]pyrimidin-1-yl)ethyl]-7-chloro-6-fluoro-2-methyl-2,3-dihydro-1,4-benzoxazepin-4(5H)-yl]azetidine-1-carboxylate]	–	≤ 100 nM	–
Cc1nn(C(C)c2cc(Cl)c(F)c3c2OCCCN(S(C)(=O)=O)C3)c2ncnc(N)c12 (stereo not shown) [Example 45, 1-{1-[8-Chloro-7-fluoro-5-(methylsulfonyl)-3,4,5,6-tetrahydro-2H-1,5-benzoxazocin-10-yl]ethyl}-3-methyl-1H-pyrazolo[3,4-d]pyrimidin-4-amine]	–	≤ 100 nM	≤ 500 nM
Cc1nn(C(C)c2cc(Cl)c(C#N)c3c2OCCN(CCO)C3)c2ncnc(N)c12 (stereo not shown) [Example 58, 9-[1-(4-Amino-3-methyl-1H-pyrazolo[3,4-d]pyrimidin-1-yl)ethyl]-7-chloro-4-(2-hydroxyethyl)-2,3,4,5-tetrahydro-1,4-benzoxazepine-6-carbonitrile]	–	–	≤ 500 nM
CC(=O)N1CC(N2Cc3c(F)c(Cl)cc(C(C)n4nc(C)c5c(N)ncnc54)c3OC(C)C2=O)C1 (stereo not shown) [Example 71, 4-(1-Acetylazetidin-3-yl)-9-[1-(4-amino-3-methyl-1H-pyrazolo[3,4-d]pyrimidin-1-yl)ethyl]-7-chloro-6-fluoro-2-methyl-4,5-dihydro-1,4-benzoxazepin-3(2H)-one]	–	–	500 to 1000 nM
Cc1nn(C(C)c2cc(Cl)c(F)c3c2OCCN(C2CN(C(=O)N(C)C)C2)C3)c2ncnc(N)c12 (stereo not shown) [Example 73, 3-[9-[1-(4-amino-3-methyl-1H-pyrazolo[3,4-d]pyrimidin-1-yl)ethyl]-7-chloro-6-fluoro-2,3-dihydro-1,4-benzoxazepin-4(5H)-yl]-N,N-dimethylazetidine-1-carboxamide]	–	–	≤ 500 nM
Cc1nn(C(C)c2cc(Cl)c(F)c3c2OCCN(C2CN(S(=O)(=O)N(C)C)C2)C3)c2ncnc(N)c12 (stereo not shown) [Example 74, 3-[9-[1-(4-amino-3-methyl-1H-pyrazolo[3,4-d]pyrimidin-1-yl)ethyl]-7-chloro-6-fluoro-2,3-dihydro-1,4-benzoxazepin-4(5H)-yl]-N,N-dimethylazetidine-1-sulfonamide]	–	–	500 to 1000 nM
Cc1nn(C(C)c2cc(Cl)c(F)c3c2OC(C)CN(C2CN(S(C)(=O)=O)C2)C3)c2ncnc(N)c12 (stereo not shown) [Example 75, 1-(1-{7-chloro-6-fluoro-2-methyl-4-[1-(methylsulfonyl)azetidin-3-yl]-2,3,4,5-tetrahydro-1,4-benzoxazepin-9-yl}ethyl)-3-methyl-1H-pyrazolo[3,4-d]pyrimidin-4-amine]	–	–	≤ 500 nM
CCC(=O)N1CC(N2Cc3c(F)c(Cl)cc(C(C)n4nc(C)c5c(N)ncnc54)c3OC(C)C2)C1 (stereo not shown) [Example 76, 1-{1-[7-chloro-6-fluoro-2-methyl-4-(1-propionylazetidin-3-yl)-2,3,4,5-tetrahydro-1,4-benzoxazepin-9-yl]ethyl}-3-methyl-1H-pyrazolo[3,4-d]pyrimidin-4-amine]	–	–	≤ 500 nM
Cc1nn([C@@H](C)c2cc(Cl)c(F)c3c2O[C@@H](C)CN(C2CN(C[C@H](C)O)C2)C3)c2ncnc(N)c12 [Example 85, (2S)-1-{3-[(2S)-9-[(1S)-1-(4-amino-3-methyl-1H-pyrazolo[3,4-d]pyrimidin-1-yl)ethyl]-7-chloro-6-fluoro-2-methyl-2,3-dihydro-1,4-benzoxazepin-4(5H)-yl]azetidin-1-yl}propan-2-ol]	–	–	≤ 500 nM
Cc1nn([C@@H](C)c2cc(Cl)c(F)c3c2O[C@@H](C)CN(C2CN(C[C@@H](C)O)C2)C3)c2ncnc(N)c12 [Example 86, (2R)-1-{3-[(2S)-9-[(1S)-1-(4-amino-3-methyl-1H-pyrazolo[3,4-d]pyrimidin-1-yl)ethyl]-7-chloro-6-fluoro-2-methyl-2,3-dihydro-1,4-benzoxazepin-4(5H)-yl]azetidin-1-yl}propan-2-ol]	–	–	≤ 500 nM
CCC(=O)N1CC(N2CCOc3c(C(C)n4nc(C)c5c(N)ncnc54)cc(Cl)c(C#N)c3C2)C1 (stereo not shown) [Example 89, 9-[1-(4-amino-3-methyl-1H-pyrazolo[3,4-d]pyrimidin-1-yl)ethyl]-7-chloro-4-(1-propionylazetidin-3-yl)-2,3,4,5-tetrahydro-1,4-benzoxazepine-6-carbonitrile]	–	–	≤ 500 nM
Cc1nn(C(C)c2cc(Cl)c(C#N)c3c2OCCN(C2CN(S(C)(=O)=O)C2)C3)c2ncnc(N)c12 (stereo not shown) [Example 90, 9-[1-(4-amino-3-methyl-1H-pyrazolo[3,4-d]pyrimidin-1-yl)ethyl]-7-chloro-4-[1-(methylsulfonyl)azetidin-3-yl]-2,3,4,5-tetrahydro-1,4-benzoxazepine-6-carbonitrile]	–	–	≤ 500 nM
Cc1nn(C(C)c2cc(Cl)c(C#N)c3c2OCCN(C2CN(C(=O)NC(C)C)C2)C3)c2ncnc(N)c12 (stereo not shown) [Example 91, 3-[9-[1-(4-amino-3-methyl-1H-pyrazolo[3,4-d]pyrimidin-1-yl)ethyl]-7-chloro-6-cyano-2,3-dihydro-1,4-benzoxazepin-4(5H)-yl]-N-isopropylazetidine-1-carboxamide]	–	–	≤ 500 nM
CCOC(=O)N1CC(N2CCOc3c(C(C)n4nc(C)c5c(N)ncnc54)cc(Cl)c(C#N)c3C2)C1 (stereo not shown) [Example 92, ethyl 3-[9-[1-(4-amino-3-methyl-1H-pyrazolo[3,4-d]pyrimidin-1-yl)ethyl]-7-chloro-6-cyano-2,3-dihydro-1,4-benzoxazepin-4(5H)-yl]azetidine-1-carboxylate]	–	–	≤ 500 nM
CCC(=O)N1CC(N2Cc3c(C#N)c(Cl)cc(C(C)n4nc(C)c5c(N)ncnc54)c3OC(C)C2)C1 (stereo not shown) [Example 96, 9-[1-(4-amino-3-methyl-1H-pyrazolo[3,4-d]pyrimidin-1-yl)ethyl]-7-chloro-2-methyl-4-(1-propionylazetidin-3-yl)-2,3,4,5-tetrahydro-1,4-benzoxazepine-6-carbonitrile]	–	≤ 100 nM	≤ 500 nM
